Structures can show the parent of a compound that is named as a salt. Bounds are passed on as bounds.

For this test, the target named is T1, untagged HECT of NEDD4 wild-type (WT) (E3 ligase) (Homo sapiens, UniProt P46934).
T1 construct: untagged HECT of NEDD4 wild-type (WT) (E3 ligase); made in house
T1 sequence (P46934 519-900 isoform P46934-4 limits assumed): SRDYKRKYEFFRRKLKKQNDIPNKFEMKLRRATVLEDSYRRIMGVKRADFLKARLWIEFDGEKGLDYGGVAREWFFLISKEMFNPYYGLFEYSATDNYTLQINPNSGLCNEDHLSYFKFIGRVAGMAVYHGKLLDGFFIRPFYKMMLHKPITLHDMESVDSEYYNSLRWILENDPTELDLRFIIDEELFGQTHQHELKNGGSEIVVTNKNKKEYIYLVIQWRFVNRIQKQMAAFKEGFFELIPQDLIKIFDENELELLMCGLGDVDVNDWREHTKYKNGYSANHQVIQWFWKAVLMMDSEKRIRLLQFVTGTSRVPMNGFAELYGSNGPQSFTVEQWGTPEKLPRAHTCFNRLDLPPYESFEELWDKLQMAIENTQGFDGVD
The test is described as follows: In vitro ubiquitination assay TR-FRET based (self-ubiquitination of NEDD4). To be noted: at 11 μM; pre-incubated for 1 hour; AUC of 120 minutes kinetic; read-out: percentages of inhibition (NEDD4). It is filed as biochemical. The text has this:
FIG. 1: TR-FRET kinetic assay performed with compound 12. […] Reactions were initiated with the addition of ATP. As labeled ubiquitin molecules become incorporated into chains they come into close proximity, resulting in energy transfer and increased signal to background detection. The activity of the enzyme is continuously and real time detected and it is expressed as % of signal/background during the time.
In order to quantitatively measure the self-ubiquitination process of the E3 HECT ligase NEDD4 the inventors employed a TR-FRET based assay. TR-FRET technology exploits the long-lasting emission of lanthanide fluorescence to interpose a short time-delay between FRET donor excitation and emission. This phenomenon enables to isolate real fluorescent signals from short-lived background emissions, thus reducing possible interference from compounds.
In the present study, elongation of the ubiqutin chain by NEDD4 is measured by adding bacterially expressed E1, His-tagged UBE2D3 (E2) and untagged HECT of NEDD4 wild-type (WT) (E3 ligase) (named in FIG. 1 as WT) enzymes to a mixture of Eu-cryptate ubiquitin, Cy5-ubiquitin and wild-type ubiquitin, combined in a ratio optimized for TR-FRET based conjugation (100×TRF-Ubiquitin Mix, SBB-TR0051). […] Bacterially expressed E1, His-tagged UBE2D3 (E2), untagged HECT NEDD4 (E3 ligase) WT and NEDD4 C/A enzymes were produced and purified as reported in E. Maspero et al. Methods Mol Biol. 1449:153-60 (2016).
Enzymatic incorporation of the labeled TRF-Ubiquitin mix into chains leads to an increase in fluorescence emission at 665 nm (emission of the acceptor Cy5-Ubiquitin, Emacceptor) and decrease at emission wavelength 620 nm (emission of the donor Eu-cryptate Ubiquitin, Emdonor).
The assay was performed in a 384-well plate format (Optiplate, Perkin Elmer, #6007290) on an automated liquid-handler (Hamilton STAR, Hamilton Robotics, Switzerland).
All compounds were dissolved in 100% DMSO and serially diluted in 96-well plates (from 100 μM to 0.005 μM).
Briefly, all reagents were thawed and kept on ice. A master mix containing E1, E2, E3 and TRF-Ubiquitin Mix (SBB-TR0051) diluted in the assay buffer (Tris-HCl pH 7.6 25 mM, NaCl 100 mM, MgCl2 5 mM and Tween 0.01%) is prepared and 50 μl/well is dispensed in a 384 well plate. 3 μl of compounds dissolved in DMSO in the above-indicated concentration range were added and pre-incubated for 1 hour. Final E1, E2 and E3 concentrations in the assay buffer (Tris-HCl pH 7.6 25 mM, NaCl 100 mM, MgCl2 5 mM and Tween 0.01%) were 30, 350 and 50 nanomolars, respectively. The reaction was initiated with the addition of ATP (22 μl of 2 mM ATP, JenaBioscience, NU-1010) and was allowed to proceed for 120 minutes, measuring fluorescence emission at 665 nm and 620 nm in real-time on an EnSpire microplate reader (Perkin Elmer).
Kinetic raw data were analyzed by Area Under the Curve (AUC) method using Prism GraphPad software.
% signal/background corresponds to the following equation: (Experimental signal−Background signal)/Background signal×100%
Experimental signal corresponds to the signal obtained by the enzymatic reaction in presence of the vehicle (DMSO) and/or the different compound concentrations. Background signal corresponds to the signal obtained by the enzymatic reaction in absence of ATP.
The relative potency of the compounds was evaluated by dose-response curves following the enzymatic reaction of HECT NEDD4 WT in real time for 120 minutes.
Percentage of inhibition is then determined by the equation: % inhibition=100×[1−(X)/(MAX)],
where MAX correspond to AUC of the vehicle (DMSO) treated enzyme, and X corresponds to the AUC of the compound treated enzyme.
Regarding `CCOC(=O)/C=C/CNCCCN1c2ccccc2C(=O)N(CCCO)c2ccc(Cl)cc21` [Compound 52, Ethyl (E)-4-({3-[7-chloro-10-(3-hydroxypropyl)-11-oxo-10,11-dihydro-5H-dibenzo[b,e][1,4]diazepin-5-yl]propyl}amino)but-2-enoate maleate], the inhibition (as a rule, the drop in the measured response relative to a control, in per cent) at 11 µM lay in the range of 30 to 50%.

Take `CN(C/C=C/C(=O)CCc1ccccc1)CCCCN1c2ccccc2CCc2ccc(Cl)cc21` [Compound 53, (E)-6-[4-(3-chloro-10,11-dihydro-5H-dibenzo[b,f]azepin-5-yl)butyl-methyl-amino]-1-phenyl-hex-4-en-3-one maleate]: the inhibition at 11 µM is over 50%.

`CCC(=O)/C=C/CN(C)CCCCN1c2ccccc2CCc2ccc(Cl)cc21` [Compound 54, (E)-6-[4-(3-chloro-10,11-dihydro-5H-dibenzo[b,f]azepin-5-yl)butyl-methyl-amino]hex-4-en-3-one maleate]: the inhibition at 11 µM is over 50%. For `CCOC(=O)/C=C/CNCCCN1c2ccccc2C(=O)N(CCO)c2ccc(Cl)cc21` [Compound 55, Ethyl (E)-4-({3-[7-chloro-10-(2-hydroxyethyl)-11-oxo-10,11-dihydro-5H-dibenzo[b,e][1,4]diazepin-5-yl]propyl}amino)but-2-enoate maleate] the value was under 30%; for `CC(=O)/C=C/CN(C)CCCCN1c2cc(Cl)ccc2C(=O)N(C)c2ccccc21` [Compound 57, 3-Chloro-10-methyl-5-(4-{methyl[(E)-4-oxopent-2-en-1-yl]amino}butyl)-5,10-dihydro-11H-dibenzo[b,e][1,4]diazepin-11-one maleate], over 50%; for `CON(C)C(=O)/C=C/CN(C)CCCCN1c2cc(Cl)ccc2C(=O)N(Cc2ccccc2)c2ccccc21` [Compound 59, (E)-4-{[4-(10-Benzyl-3-chloro-11-oxo-10,11-dihydro-5H-dibenzo[b,e][1,4]diazepin-5-yl)butyl](methyl)amino}-N-methoxy-N-methyl-but-2-enamide maleate], over 50%.

As for `CC(=O)/C=C/CN(C)CCCCN1c2cc(Cl)ccc2C(=O)N(Cc2ccccc2)c2ccccc21` [Compound 60, 10-Benzyl-3-chloro-5-(4-{methyl[(E)-4-oxo-pent-2-en-1-yl]amino}butyl)-5,10-dihydro-11H-dibenzo[b,e][1,4]diazepin-11-one maleate], the inhibition at 11 µM was over 50%. `COC(=O)/C=C/CNCCCCN1c2ccccc2CCc2ccc(Cl)cc21` [Compound 62, Methyl (E)-4-[4-(3-chloro-10,11-dihydro-5H-dibenzo[b,f]azepin-5-yl)butylamino]but-2-enoate maleate]: the inhibition at 11 µM was over 50%.

With `CCOC(=O)/C=C/CN(C)CCCCN1c2ccccc2CCc2ccc(Cl)cc21` [Compound 63, Ethyl (E)-4-{[4-(3-chloro-10,11-dihydro-5H-dibenzo[b,f]azepin-5-yl)butyl]-methyl-amino}but-2-enoate maleate], the inhibition at 11 µM was over 50%.

Take `CCOC(=O)/C=C/CN(CC)CCCCN1c2ccccc2CCc2ccc(Cl)cc21` [Compound 64, Ethyl (E)-4-{[4-(3-chloro-10,11-dihydro-dibenzo[b,f]azepin-5-yl)butyl]-ethyl-amino}but-2-enoate maleate]: the inhibition at 11 µM is over 50%. Turning to `CCOC(=O)/C=C/CN(CCCCN1c2ccccc2CCc2ccc(Cl)cc21)C(C)C` [Compound 65, Ethyl (E)-4-{[4-(3-chloro-10,11-dihydro-dibenzo[b,f]azepin-5-yl)butyl]-isopropyl-amino}but-2-enoate maleate], the inhibition at 11 µM is over 50%. For `CNC(=O)/C=C/CNCCCCN1c2ccccc2CCc2ccc(Cl)cc21` [Compound 66, (E)-4-{[4-(3-chloro-10,11-dihydro-5H-dibenzo[b,f]azepin-5-yl)butyl]amino}-N-methyl-but-2-enamide hydrochloride] the value was 30 to 50%; for `CCOC(=O)/C=C/CNCCCCN1c2ccc(OC)cc2CCc2ccc(Cl)cc21` [Compound 67, Ethyl (E)-4-[4-(7-Chloro-2-methoxy-10,11-dihydro-dibenzo[b,f]azepin-5-yl)-butylamino]-but-2-enoate maleate], over 50%; for `COC(=O)/C=C/CN(C)CCCCN1c2cc(Cl)ccc2COc2ccccc21` [Compound 68, Methyl (E)-4-[4-(3-chlorodibenzo[b,e][1,4]oxazepin-5(11H)-yl)butyl-methyl-amino]but-2-enoate], over 50%.

In the case of `CON(C)C(=O)/C=C/CN(C)CCCCN1c2cc(Cl)ccc2COc2ccccc21` [Compound 69, (E)-4-[4-(3-Chlorodibenzo[b,e][1,4]oxazepin-5(11H)-yl)butyl-methyl-amino]-N-methoxy-N-methyl-but-2-enamide], the inhibition at 11 µM was over 50%.

On to `CC(=O)/C=C/CN(C)CCCCN1c2cc(Cl)ccc2COc2ccccc21` [Compound 70, (E)-5-[4-(3-Chlorodibenzo[b,e][1,4]oxazepin-5(11H)-yl)butyl-methyl-amino]pent-3-en-2-one maleate], for which the inhibition at 11 µM was over 50%. For the compound `N#C/C=C/CNCCCCN1c2ccccc2CCc2ccc(Cl)cc21` [Compound 71, (E)-4-[4-(3-chloro-10,11-dihydro-5H-dibenzo[b,f]azepin-5-yl)butylamino]but-2-enenitrile maleate], the inhibition at 11 µM was over 50%.

`CN(C/C=C/C(N)=O)CCCCN1c2ccccc2CCc2ccc(Cl)cc21` [Compound 72, (E)-4-[4-(3-Chloro-10,11-dihydro-5H-dibenzo[b,f]azepin-5-yl)butyl-methyl-amino]but-2-enamide]: the inhibition at 11 µM is over 50%. For `CN(C/C=C/C#N)CCCCN1c2ccccc2CCc2ccc(Cl)cc21` [Compound 73, (E)-4-[4-(3-Chloro-10,11-dihydro-5H-dibenzo[b,f]azepin-5-yl)butyl-methyl-amino]but-2-enenitrile maleate] the value was over 50%. The figure for `CCOC(=O)/C=C/CNCCCCN1c2ccc(CO)cc2CCc2ccc(Cl)cc21` [Compound 74, Ethyl (E)-4-[4-(7-Chloro-2-hydroxymethyl-10,11-dihydro-dibenzo[b,f]azepin-5-yl)-butylamino]-but-2-enoate maleate] is over 50%; for `CCOC(=O)/C=C/CNCCCCN1c2ccc(COC)cc2CCc2ccc(Cl)cc21` [Compound 75, Ethyl (E)-4-[4-(7-chloro-2-methoxymethyl-10,11-dihydro-dibenzo[b,f]azepin-5-yl)-butylamino]-but-2-enoate maleate] it is over 50%.

As for `CCOC(=O)/C=C/CNCCCCN1c2ccc(COCCOC)cc2CCc2ccc(Cl)cc21` [Compound 76, Ethyl (E)-4-[4-(7-chloro-2-methoxyethoxymethyl-10,11-dihydro-dibenzo[b,f]azepin-5-yl)-butylamino]-but-2-enoate maleate], the inhibition at 11 µM was over 50%.

These data come from US12403144B2, “HECT E3 ligase inhibitors and uses thereof” (IFOM FONDAZIONE ISTITUTO FIRC DI ONCOLOGIA MOLECOLARE, priority 2019, dated 2025).
